{
  "source": "patent US10744114B2",
  "about": "“Use of eupatilin as pharmaceutical composition for prevention and treatment of fibrosis using EMT inhibitory activity” (OSTEONEUROGEN INC., priority 2016, dated 2020)",
  "system": "ONGHEPA1 cells",
  "test": "Global gene expression analysis (RNA-Seq) and target gene analysis",
  "format": "cell-based, mouse",
  "conditions": "24 hr",
  "method": "For a mechanism for the therapeutic effect on fibrosis, the global gene expression of DMSO-treated ONGHEPA1 cells (a control group), ONGHEPA1 cells in which fibrosis was induced by TGF-β, and ONGHEPA1 cells treated with TGF-β and eupatilin was measured.\nThe cells were treated with DMSO, TGF-β or eupatilin for 24 hr, and total RNA was isolated to manufacture a library, after which about 10,000 expressed mRNA species in a total transcriptome of 30 Gb were analyzed using an Illumina High-seq sequencer.",
  "data": [
    {"smiles": "COc1ccc(-c2cc(=O)c3c(O)c(OC)c(O)cc3o2)cc1OC", "note": "[eupatilin, 2-(3,4-dimethoxyphenyl)-5,7-dihydroxy-6-methoxy-chromone]", "values": [
      {"measurement": "expression of Fstl1", "setting": "TGF-β + eupatilin", "result": "inhibited to a level of almost zero"},
      {"measurement": "Log2fc A disintegrin-like and metallopeptidase (reprolysin type) with thrombospondin type 1 motif 2 (Adamts2)", "setting": "TGF-β vs TGF-β+eupatilin", "result": 2.08},
      {"measurement": "Log2fc A disintegrin-like and metallopeptidase with thrombospondin type 1 motif 12 (Adamts12)", "setting": "TGF-β vs TGF-β+eupatilin", "result": 2.09},
      {"measurement": "Log2fc AXL receptor tyrosine kinase (Axl)", "setting": "TGF-β vs TGF-β+eupatilin", "result": "−infinite"},
      {"measurement": "Log2fc Actin alpha 4 (Actn4)", "setting": "TGF-β vs TGF-β+eupatilin", "result": "infinite"},
      {"measurement": "Log2fc Actin, gamma2 (Actg2)", "setting": "TGF-β vs TGF-β+eupatilin", "result": "−5.83"},
      {"measurement": "Log2fc ArfGAP with SH3 domain, ankyrin repeat and PH domain 1 (Asap1)", "setting": "TGF-β vs TGF-β+eupatilin", "result": "−infinite"},
      {"measurement": "Log2fc Aurora kinase A (Aurka)", "setting": "TGF-β vs TGF-β+eupatilin", "result": "−15.3"},
      {"measurement": "Log2fc BTAF1 RNA polymerase II, B-TFIID transcription factor-associated (Btaf1)", "setting": "TGF-β vs TGF-β+eupatilin", "result": "−infinite"},
      {"measurement": "Log2fc C-terminal-binding protein 2 (Ctbp2)", "setting": "TGF-β vs TGF-β+eupatilin", "result": "infinite"},
      {"measurement": "Log2fc Caldesmon 1 (Cald1)", "setting": "TGF-β vs TGF-β+eupatilin", "result": "infinite"},
      {"measurement": "Log2fc Calreticulin (Calr)", "setting": "TGF-β vs TGF-β+eupatilin", "result": "−1.74"},
      {"measurement": "Log2fc Calumenin (Calu)", "setting": "TGF-β vs TGF-β+eupatilin", "result": "infinite"},
      {"measurement": "Log2fc Caveolin 1, Caveolae protein (Cav1)", "setting": "TGF-β vs TGF-β+eupatilin", "result": 1.76},
      {"measurement": "Log2fc Cell cycle associated protein 1 (Caprin1)", "setting": "TGF-β vs TGF-β+eupatilin", "result": "−infinite"},
      {"measurement": "Log2fc Cell migration inducing protein, hyaluronan binding (Cemip)", "setting": "TGF-β vs TGF-β+eupatilin", "result": "−2.75"},
      {"measurement": "Log2fc Coatomer protein complex, subunit gamma 1 (Copg1)", "setting": "TGF-β vs TGF-β+eupatilin", "result": "infinite"},
      {"measurement": "Log2fc Collagen type 1 alpha 1 (Col1a1)", "setting": "TGF-β vs TGF-β+eupatilin", "result": "−1.64"},
      {"measurement": "Log2fc Collagen type VII alpha1 (Col7a1)", "setting": "TGF-β vs TGF-β+eupatilin", "result": "−15.2"},
      {"measurement": "Log2fc Collagen type XV, alpha 1 (Col5a1)", "setting": "TGF-β vs TGF-β+eupatilin", "result": 2.26},
      {"measurement": "Log2fc Collagen, type III, alpha 1 (Col3a1)", "setting": "TGF-β vs TGF-β+eupatilin", "result": "infinite"},
      {"measurement": "Log2fc Collagen, type XI, alpha 1 (Col11a1)", "setting": "TGF-β vs TGF-β+eupatilin", "result": "−3.11"},
      {"measurement": "Log2fc Collagen, type XII, alpha 1 (Col12a1)", "setting": "TGF-β vs TGF-β+eupatilin", "result": 2.02},
      {"measurement": "Log2fc Colony stimulating factor 1 (macrophage) (Csf1)", "setting": "TGF-β vs TGF-β+eupatilin", "result": 2.15},
      {"measurement": "Log2fc Crystallin, zeta (quinone reductase)-like 1 (Cryzl1)", "setting": "TGF-β vs TGF-β+eupatilin", "result": "infinite"},
      {"measurement": "Log2fc Cyclin D2 (Ccnd2)", "setting": "TGF-β vs TGF-β+eupatilin", "result": 2.29},
      {"measurement": "Log2fc Dihydropyrimidinase-like 3 (Dpysl3)", "setting": "TGF-β vs TGF-β+eupatilin", "result": "infinite"},
      {"measurement": "Log2fc Doublecortin-like kinase 1 (Dclk1)", "setting": "TGF-β vs TGF-β+eupatilin", "result": 1.54},
      {"measurement": "Log2fc Dynein cytoplasmic 1 heavy chain 1 (Dync1h1)", "setting": "TGF-β vs TGF-β+eupatilin", "result": "−infinite"},
      {"measurement": "Log2fc Dysferlin (Dysf)", "setting": "TGF-β vs TGF-β+eupatilin", "result": 2.06},
      {"measurement": "Log2fc EH-domain containing 2 (Ehd2)", "setting": "TGF-β vs TGF-β+eupatilin", "result": "infinite"},
      {"measurement": "Log2fc Elastin (Eln)", "setting": "TGF-β vs TGF-β+eupatilin", "result": 3.28},
      {"measurement": "Log2fc Endoglin (Eng)", "setting": "TGF-β vs TGF-β+eupatilin", "result": "−infinite"},
      {"measurement": "Log2fc Endoplasmic reticulum-golgi intermediate compartment 1 (ERGIC1)", "setting": "TGF-β vs TGF-β+eupatilin", "result": "−1.26"},
      {"measurement": "Log2fc Ephrin B2 (Efnb2)", "setting": "TGF-β vs TGF-β+eupatilin", "result": 1.92},
      {"measurement": "Log2fc Epidermal growth factor-containing fibulin-like extracellular matrix protein 2 (Efemp2)", "setting": "TGF-β vs TGF-β+eupatilin", "result": 1.66},
      {"measurement": "Log2fc Exocyst complex component 4 (Exoc4)", "setting": "TGF-β vs TGF-β+eupatilin", "result": 2.9},
      {"measurement": "Log2fc Family with sequence similarity 175, member B (Fam175b)", "setting": "TGF-β vs TGF-β+eupatilin", "result": "−infinite"},
      {"measurement": "Log2fc Fibronectin 1 (Fn1)", "setting": "TGF-β vs TGF-β+eupatilin", "result": "infinite"},
      {"measurement": "Log2fc Fibronectin type III domain containing 1 (Fndc1)", "setting": "TGF-β vs TGF-β+eupatilin", "result": 1.75},
      {"measurement": "Log2fc Follistatin-like 1 (Fstl1)", "setting": "TGF-β vs TGF-β+eupatilin", "result": "infinite"},
      {"measurement": "Log2fc Fras 1 related extracellular matrix protein 1 (Frem1)", "setting": "TGF-β vs TGF-β+eupatilin", "result": 2.36},
      {"measurement": "Log2fc Heat shock protein 90, alpha (cytosolic), class A member 1(Hsp90aa1)", "setting": "TGF-β vs TGF-β+eupatilin", "result": "infinite"},
      {"measurement": "Log2fc Heparan sulfate 6-O-sulfotransferase 2 (Hs6st2)", "setting": "TGF-β vs TGF-β+eupatilin", "result": 3.26},
      {"measurement": "Log2fc Importin-4 (Ipo4)", "setting": "TGF-β vs TGF-β+eupatilin", "result": "−infinite"},
      {"measurement": "Log2fc Inhibition beta-A (Inhba)", "setting": "TGF-β vs TGF-β+eupatilin", "result": 2.19},
      {"measurement": "Log2fc Inositol hexakisphosphate kinase 1 (Ip6k1)", "setting": "TGF-β vs TGF-β+eupatilin", "result": "−infinite"},
      {"measurement": "Log2fc Integral beta 5 (Itgb5)", "setting": "TGF-β vs TGF-β+eupatilin", "result": "−infinite"},
      {"measurement": "Log2fc Interleukin 18 receptor accessory protein (Il18rap)", "setting": "TGF-β vs TGF-β+eupatilin", "result": 1.69},
      {"measurement": "Log2fc Intersectin 1 (SH3 domain protein 1A) (Itsn1)", "setting": "TGF-β vs TGF-β+eupatilin", "result": "infinite"},
      {"measurement": "Log2fc Laminin, alpha 4 (Lama4)", "setting": "TGF-β vs TGF-β+eupatilin", "result": "−1.29"},
      {"measurement": "Log2fc Latent transforming growth factor beta binding protein 1 (Ltbp1)", "setting": "TGF-β vs TGF-β+eupatilin", "result": 3.32}
    ]}
  ]
}
